Entries after “also recorded” stand apart in the source; their conditions may differ.
Columns and labels:
Assay type in all cases: cell-based, human
[1] = system: HO-1; test: Vitamin C pretreatment, OS-induced HO-1 transcription in RPE cells; conditions: 500 μM H2O2, 1 hour and 4 hours after OS
Procedure: RNA was isolated from the cells using a no-rinse method after 1 hour or 4 hours of OS, and compared to no-OS controls. Gene-specific expression was quantified by real-time PCR on an ABI 7700 System. […] Experiments were carried out as described above. Briefly, ARPE19 cells were grown to confluence. […] Following RNA extraction and reverse transcription, real-time PCR was used to assess levels of gene transcripts, as described above. […] The data are normalized to 0 at time 0 in order to minimize the mild variability in starting values for the Ct seen within each experiment.

[2] = system: FosB; test: Vitamin C pretreatment, OS-induced FosB transcription in RPE cells; conditions: for Inhibition of OS-induced FosB transcription: 0.0001-0.2 mM pretreatment
Procedure: (§1) RNA was isolated from the cells using a no-rinse method after 1 hour or 4 hours of OS, and compared to no-OS controls. Gene-specific expression was quantified by real-time PCR on an ABI 7700 System. […] Experiments were carried out as described above. Briefly, ARPE19 cells were grown to confluence. […] Following RNA extraction and reverse transcription, real-time PCR was used to assess levels of gene transcripts, as described above. […] The data are normalized to 0 at time 0 in order to minimize the mild variability in starting values for the Ct seen within each experiment. […] OS strongly induces gene expression in our gene panel, and the number of transcripts (amount of induction) is proportional to the level of OS. Therefore, protective effects of an antioxidant such as Vitamin C would be expected to reduce the level of transcripts. A protective effect is reflected in an inverse dose dependent (DD) relationship between the level of antioxidant agent (Vitamin C) and the level of transcripts. Higher pretreatment levels with the antioxidant should lead to a lower level of transcripts after OS (a lower change in Ct). An extremely low dose of Vitamin C (0.0001 mM) was chosen in these studies as a homeopathic dose that is not expected to be protective and should be similar to the positive control. This control was added to ensure that all cultures were treated in the same way, as we have determined that even minimal manipulations can have significant effects upon expression of these genes.

[3] = system: cFos; test: Vitamin C pretreatment, OS-induced cFos transcription in RPE cells
Procedure: as §1

[4] = system: ATF3; test: Vitamin C pretreatment, OS-induced ATF3 transcription in RPE cells
Procedure: as §1, with “An extremely low dose of Vitamin C (0.0001 mM) was chosen in these studies as a homeopathic dose that is not expected to be protective and should be similar to the positive control.” left out

[5] = system: CRYBA; test: Vitamin C pretreatment, OS-induced CRYBA transcription in RPE cells; conditions: for Inhibition of OS-induced CRYBA transcription: 0.0001-0.2 mM pretreatment
Procedure: as §1

SMILES: O=C1O[C@H]([C@@H](O)CO)C(O)=C1O [Vitamin C, L-ascorbic acid]
- Response of HO-1 transcription after OS to pretreatment [1]: does not demonstrate any response; also recorded: does not appear to be reduced
- Inhibition of OS-induced FosB transcription ([2]; 500 μM H2O2, 1 hour): modest dose response
- Inhibition of OS-induced FosB transcription ([2]; 500 μM H2O2, 4 hours): the effect is quite clear
- Activation of FosB transcription by OS following pretreatment ([2]; summary, 500 μM H2O2): dose-dependent reduction
- Inhibition of OS-induced cFos transcription ([3]; 0.0001-0.2 mM pretreatment, 500 μM H2O2, 1 hour): modest threshold response
- Inhibition of OS-induced cFos transcription ([3]; 0.2 mM dose, 500 μM H2O2, 1 hour): strong dose-dependence
- Inhibition of OS-induced cFos transcription ([3]; 500 μM H2O2, 4 hours): threshold response for the lower levels of Vitamin C is still seen
- Activation of c-Fos transcription by OS following pretreatment ([3]; summary, 500 μM H2O2): dose-dependent reduction
- Response of OS-induced ATF3 transcription to pretreatment ([4]; 0.0001-0.2 mM pretreatment, 500 μM H2O2): we do not see a response; also recorded: does not appear to be reduced; also recorded: does not inhibit
- Response of OS-induced ATF3 transcription to pretreatment ([4]; 500 μM H2O2, 4 hours): slight threshold response may be present
- Inhibition of OS-induced CRYBA transcription ([5]; 500 μM H2O2, 1 hour): DD response is evident
- Inhibition of OS-induced CRYBA transcription ([5]; 500 μM H2O2, 4 hours): DD response is more evident
- Activation of CRYBA transcription by OS following pretreatment ([5]; summary, 500 μM H2O2): dose-dependent reduction

From patent publication US20080312128A1, “Cellular Biomarker Antioxidant Assay and Uses Thereof” (priority 2005, published 2008)
